Legend:
[1] = target: T1, G12C K-Ras4B (1-169) (Homo sapiens, UniProt P01116, G12C); test: Binding to KRAS G12C mutant, compound binding rate by LC-MS; details: final compound concentration 2 μM, 1 μM protein, 2 hours at 25° C.
T1 construct: G12C K-Ras4B (1-169) protein, which was a KRAS G12C mutant; His tag (N, cleaved yes); made in house; host or cells: E. coli BL21 (DE3)
Method in brief: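 Covalent labelling at 2 μM final compound on a mix of 1 μM each wild-type and G12C K-Ras4B (1-169) (E. coli-expressed, tag removed) in 1×TBS, 0.1 mM TCEP, 2 h at 25° C., quenched with formic acid. Intact-protein ESI Q-TOF LC-MS; binding rate from adduct vs unbound protein signal, graded A–E in 20% bands.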

[2] = target: T2, KRAS G12C mutant (Homo sapiens, UniProt P01116, G12C); test: Inhibition of SOS1-mediated nucleotide (GDP-GTP) exchange reaction of KRAS G12C mutant, BODIPY FL GDP fluorescence; assay type: biochemical; details: preincubated 25° C. 4 hours with 25 nM KRAS G12C bound with BODIPY FL GDP; SOS1 100 nM, GppNHp 1 μM, 30 minutes
T2 construct: 50 μM G12C K-Ras4B (1-169) protein and 1 mM BODIPY® FL GDP; His tag (N, cleaved yes); made in house; host or cells: E. coli BL21 (DE3)
Method in brief: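 KRAS G12C (1-169) loaded with BODIPY FL GDP (25 nM) was preincubated with compound (5% DMSO) for 4 h at 25 °C. Exchange then ran 30 min with SOS1 (564-1049, 100 nM) and 1 µM GppNHp. IC50 came from the 485/520 nm fluorescence change, normalized to DMSO and no-GppNHp controls.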

[3] = test system: NCI-H358 cells; test: Growth inhibition of KRAS-G12C mutant cell line NCI-H358 (CellTiter-Glo 2.0); assay type: cell-based; details: Homo sapiens, 72 h; NCI-H358, 3-day culture with compound
Description: KRAS-G12C mutant human lung cancer cell line NCI-H358 cells (ATCC, Cat #: CRL-5807) were suspended in RPMI1640 medium (manufactured by Fujifilm Wako Pure Chemical Corp.) containing 10% fetal bovine serum. The cell suspension was seeded at 500 cells/well into the wells of a 384-well flat-bottom microplate and cultured at 37° C. for 1 day in an incubator containing 5% CO2. The compound of the present invention was dissolved in DMSO and diluted with DMSO such that the concentration of the test compound was 500 times the final concentration. The solution of the test compound in DMSO was diluted with the medium used for suspending the cells, and the resultant was added to each well of the cell culture plate such that the final concentration of DMSO was 0.2%, followed by culture at 37° C. for another 3 days in an incubator containing 5% CO2.
Growth inhibition rate (%)=(C−T)/(C)×100 • T: the emission intensity in a well supplemented with the test compound. • C: the emission intensity in a well not supplemented with the test compound.

Row | binding rate for G12C K-Ras4B (1-169) [1] | IC50 [2] | IC50 [3] | Compound
1 | A (80% or more) | 11 nM | 301 nM | C=CC(=O)N1CC(NC(=O)c2c(C)nc(CNc3cc(C(C)(C)C)c(Cl)cc3O)n2C(C)C)C1 [Example 42, N-(1-Acryloylazetidin-3-yl)-2-(((5-(tert-butyl)-4-chloro-2-hydroxyphenyl)amino)methyl)-1-isopropyl-4-methyl-1H-imidazole-5-carboxamide]
2 | A (80% or more) | 9 nM | 511 nM | C=CC(=O)N1CC(NC(=O)c2c(C)nc(CNc3cc(C(C)(C)C)c(Cl)cc3O)n2CCC)C1 [Example 44, N-(1-Acryloylazetidin-3-yl)-2-(((5-(tert-butyl)-4-chloro-2-hydroxyphenyl)amino)methyl)-4-methyl-1-propyl-1H-imidazole-5-carboxamide]
3 | A (80% or more) | 16 nM | 576 nM | C=CC(=O)N1CC(NC(=O)c2c(C)nc(CNc3cc(C(C)(C)C)c(Cl)cc3O)n2C2CCCC2)C1 [Example 45, N-(1-Acryloylazetidin-3-yl)-2-(((5-(tert-butyl)-4-chloro-2-hydroxyphenyl)amino)methyl)-1-cyclopentyl-4-methyl-1H-imidazole-5-carboxamide]
4 | A (80% or more) | 5 nM | 916 nM | C=CC(=O)N1CC(NC(=O)c2c(C)nc(CNc3cc(C(C)(C)C)c(Cl)cc3O)n2Cc2cccnc2)C1 [Example 46, N-(1-Acryloylazetidin-3-yl)-2-(((5-(tert-butyl)-4-chloro-2-hydroxyphenyl)amino)methyl)-4-methyl-1-(pyridin-3-ylmethyl)-1H-imidazole-5-carboxamide]
5 | A (80% or more) | 17 nM | 399 nM | C=CC(=O)N1CC(NC(=O)c2c(C)nc(CNc3cc(C(C)(C)C)c(C)cc3O)n2C)C1 [Example 76, N-(1-Acryloylazetidin-3-yl)-2-(((5-(tert-butyl)-2-hydroxy-4-methylphenyl)amino)methyl)-1,4-dimethyl-1H-imidazole-5-carboxamide]
6 | A (80% or more) | 22 nM | 683 nM | C=CC(=O)N1CC(NC(=O)c2cnc(Cc3cc(C(C)(C)C)c(Cl)cc3O)n2C)C1 [Example 97, N-(1-Acryloylazetidin-3-yl)-2-(5-(tert-butyl)-4-chloro-2-hydroxybenzyl)-1-methyl-1H-imidazole-5-carboxamide]

Second part, the compound before the results:

Row | Compound | binding rate for G12C K-Ras4B (1-169) [1] | IC50 [2] | IC50 [3]
7 | C=CC(=O)N1CC(NC(=O)c2c(C)nc(CNc3cc(C(C)(C)C)c(Cl)cc3O)n2CCCC)C1 [Example 43, N-(1-Acryloylazetidin-3-yl)-1-butyl-2-(((5-(tert-butyl)-4-chloro-2-hydroxyphenyl)amino)methyl)-4-methyl-1H-imidazole-5-carboxamide] | A (80% or more) | 7 nM | 351 nM
8 | C=CC(=O)N1CC(NC(=O)c2c(C)nc(CNc3cc(C(C)(C)C)c(C)cc3O)n2C(C)C)C1 [Example 78, N-(1-Acryloylazetidin-3-yl)-2-(((5-(tert-butyl)-2-hydroxy-4-methylphenyl)amino)methyl)-1-isopropyl-4-methyl-1H-imidazole-5-carboxamide] | A (80% or more) | 50 nM | 993 nM
9 | C=CC(=O)N1CC(NC(=O)c2c(C)nc(Cc3cc(C(C)(C)C)c(Cl)cc3O)n2C)C1 [Example 92, N-(1-Acryloylazetidin-3-yl)-2-(5-(tert-butyl)-4-chloro-2-hydroxybenzyl)-1,4-dimethyl-1H-imidazole-5-carboxamide] | B (60% or more and less than 80%) | 55 nM | 1100 nM
10 | C=CC(=O)N1CC(NC(=O)c2c(C)nn(Cc3cc(C(C)(C)C)c(Cl)cc3O)c2C)C1 [Example 96, N-(1-Acryloylazetidin-3-yl)-1-(5-(tert-butyl)-4-chloro-2-hydroxybenzyl)-3,5-dimethyl-1H-pyrazole-4-carboxamide] | A (80% or more) | 65 nM | 1360 nM

From patent US12479834B2, “Phenol compound or salt thereof” (TAIHO PHARMACEUTICAL CO., LTD., priority 2019, dated 2025)
